# Laboratory results as given in ChEMBL document CHEMBL1268867, “ATPases as drug targets: insights from heat shock proteins 70 and 90” (J Med Chem, 2010).
# Assays:
# [1] = Binding affinity to Hsp70 nucleotide binding domain
# [2] = target: Heat shock cognate 71 kDa protein (Bos taurus, UniProt P19120); assay: Binding affinity to bovine Hsc70 by filter binding assay
# [3] = target: Heat shock cognate 71 kDa protein (Homo sapiens, UniProt P11142); assay: Binding affinity to human Hsc70 by isothermal calorimetry assay
# Sequence of Heat shock cognate 71 kDa protein (Homo sapiens, UniProt P11142) (P11142 whole entry): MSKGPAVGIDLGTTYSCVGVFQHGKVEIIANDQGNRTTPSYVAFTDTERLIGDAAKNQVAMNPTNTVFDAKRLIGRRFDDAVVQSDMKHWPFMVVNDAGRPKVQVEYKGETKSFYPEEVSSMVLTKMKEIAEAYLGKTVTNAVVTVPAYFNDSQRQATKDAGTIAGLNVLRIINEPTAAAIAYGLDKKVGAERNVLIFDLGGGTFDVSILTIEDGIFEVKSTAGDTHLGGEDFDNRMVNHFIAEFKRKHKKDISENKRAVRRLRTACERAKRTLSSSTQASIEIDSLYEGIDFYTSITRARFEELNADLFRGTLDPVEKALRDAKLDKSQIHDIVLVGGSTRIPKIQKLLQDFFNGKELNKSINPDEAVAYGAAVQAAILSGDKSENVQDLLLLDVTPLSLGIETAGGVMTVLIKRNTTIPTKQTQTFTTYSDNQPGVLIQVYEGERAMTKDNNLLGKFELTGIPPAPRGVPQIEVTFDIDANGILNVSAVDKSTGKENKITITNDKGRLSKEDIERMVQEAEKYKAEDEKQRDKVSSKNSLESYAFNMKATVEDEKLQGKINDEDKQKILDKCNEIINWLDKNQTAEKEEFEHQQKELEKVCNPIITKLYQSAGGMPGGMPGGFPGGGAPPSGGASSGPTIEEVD
# Sequence of Heat shock cognate 71 kDa protein (Bos taurus, UniProt P19120) (P19120 whole entry): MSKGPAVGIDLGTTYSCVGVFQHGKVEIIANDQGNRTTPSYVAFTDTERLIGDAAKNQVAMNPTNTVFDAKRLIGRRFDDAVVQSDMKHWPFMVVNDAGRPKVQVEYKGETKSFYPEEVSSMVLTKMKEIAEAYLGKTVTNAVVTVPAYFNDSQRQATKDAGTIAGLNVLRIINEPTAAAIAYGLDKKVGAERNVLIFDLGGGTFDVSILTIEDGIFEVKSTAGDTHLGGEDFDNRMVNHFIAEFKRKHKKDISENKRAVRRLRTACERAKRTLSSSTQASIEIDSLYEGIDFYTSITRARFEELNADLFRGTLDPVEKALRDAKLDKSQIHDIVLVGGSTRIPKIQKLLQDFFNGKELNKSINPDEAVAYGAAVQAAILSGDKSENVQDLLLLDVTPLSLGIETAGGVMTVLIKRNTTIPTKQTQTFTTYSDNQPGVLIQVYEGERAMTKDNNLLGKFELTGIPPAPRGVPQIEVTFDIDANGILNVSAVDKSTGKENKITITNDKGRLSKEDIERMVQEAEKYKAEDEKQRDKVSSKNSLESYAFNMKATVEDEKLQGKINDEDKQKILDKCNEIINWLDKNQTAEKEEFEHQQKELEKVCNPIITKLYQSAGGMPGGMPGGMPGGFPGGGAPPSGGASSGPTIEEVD
Compound,Kd [1] [nM],Kd [2] [nM],Kd [3] [nM]
N#Cc1ccc(COC[C@H]2O[C@@H](n3c(NCc4ccc(Cl)c(Cl)c4)nc4c(N)ncnc43)[C@H](O)[C@@H]2O)cc1,300,,
Nc1ncnc2c1ncn2[C@@H]1O[C@H](COP(=O)(O)OP(=O)(O)O)[C@@H](O)[C@H]1O [ADENOSINE DIPHOSPHATE],,110,260
